From patent US20080125432A1 (Devgen NV, priority 2004, published 2008) come the findings set out here.

Test system in the first series: not given
Assay: not given
Settings: not given
The term melting point denotes the temperature of the solid-liquid transition. `Cc1nc(NC(=O)c2ccccc2)sc1C(=O)N[C@H]1CCC[C@@H]1OCc1ccccc1` [Compound 179, 2-benzoylamino-4-methyl-thiazole-5-carboxylic acid ((1S,2S)-2-benzyloxycyclopent-1-yl) amide] yielded a melting point of 97.4 to 110.6 °C.
The same measure, in the same setting: with `COc1ccc(CNC(=O)c2oc(Nc3ccccc3OC)nc2C)c(OC)c1` [Compound 222, 2-(2-methoxy-phenylamino)-4-methyl-oxazole-5-carboxylic acid 2,4-dimethoxy-benzylamide] the figure was 68.7 to 82.4 °C; with `COc1ccccc1Nc1nc(C)c(C(=O)N2CCCC2c2ccc(F)cc2)s1` (stereo not shown) [Compound 177, [2-(4-fluoro-phenyl)-pyrrolidin-1-yl]-[2-(2-methoxy-phenylamino)-4-methyl-thiazol-5-yl]-methanone], 94.4 to 106.6 °C.
Still for that read-out and setting: with `COc1ccccc1Nc1nc(C)c(C(=O)N2CCCC2c2ccccc2)s1` (stereo not shown) [Compound 176, [2-(2-methoxy-phenylamino)-4-methyl-thiazol-5-yl]-(2-phenyl-pyrrolidin-1-yl)-methanone] the figure was 113.5 to 117.6 °C; with `COC[C@@H](NC(=O)c1sc(Nc2ccccc2OC)nc1C)c1ccccc1` [Compound 149, 2-(2-methoxy-phenylamino)-4-methyl-thiazole-5-carboxylic acid ((S)-2-methoxy-1-phenyl-ethyl)-amide], 118.8 to 129.6 °C.
On the same count and under the same terms, to `COc1ccccc1Nc1nc(C)c(C(=O)NC2CCCc3ccccc32)s1` (stereo not shown) [Compound 173, 2-(2-methoxy-phenylamino)-4-methyl-thiazole-5-carboxylic acid (1,2,3,4-tetrahydro-naphthalen-1-yl)-amide] belongs 129.4 °C; to `COc1ccccc1Nc1nc(C)c(C(=O)NCc2cccc(C)c2)s1` [Compound 141, 2-(2-methoxy-phenylamino)-4-methyl-thiazole-5-carboxylic acid 3-methyl-benzylamide], 148.1 to 149.9 °C.
As to `COc1ccccc1Nc1nc(C)c(C(=O)NCc2ccccc2C)s1` [Compound 140, 2-(2-methoxy-phenylamino)-4-methyl-thiazole-5-carboxylic acid 2-methyl-benzylamide], the melting point is 118.3 to 121.7 °C.
On the same count and under the same terms, to `COc1ccccc1Nc1nc(C)c(C(=O)NCc2ccc(OC(F)(F)F)cc2)s1` [Compound 159, 2-(2-methoxy-phenylamino)-4-methyl-thiazole-5-carboxylic acid 4-trifluoromethoxy-benzylamide] belongs 135.2 to 138.9 °C.

The next series addresses T1, human Kv4.3/KChIP2.2 potassium channel (Homo sapiens, UniProt Q9UK17).
T1 construct: expressed in transfected cells
T1 sequence (Q9UK17 1-655): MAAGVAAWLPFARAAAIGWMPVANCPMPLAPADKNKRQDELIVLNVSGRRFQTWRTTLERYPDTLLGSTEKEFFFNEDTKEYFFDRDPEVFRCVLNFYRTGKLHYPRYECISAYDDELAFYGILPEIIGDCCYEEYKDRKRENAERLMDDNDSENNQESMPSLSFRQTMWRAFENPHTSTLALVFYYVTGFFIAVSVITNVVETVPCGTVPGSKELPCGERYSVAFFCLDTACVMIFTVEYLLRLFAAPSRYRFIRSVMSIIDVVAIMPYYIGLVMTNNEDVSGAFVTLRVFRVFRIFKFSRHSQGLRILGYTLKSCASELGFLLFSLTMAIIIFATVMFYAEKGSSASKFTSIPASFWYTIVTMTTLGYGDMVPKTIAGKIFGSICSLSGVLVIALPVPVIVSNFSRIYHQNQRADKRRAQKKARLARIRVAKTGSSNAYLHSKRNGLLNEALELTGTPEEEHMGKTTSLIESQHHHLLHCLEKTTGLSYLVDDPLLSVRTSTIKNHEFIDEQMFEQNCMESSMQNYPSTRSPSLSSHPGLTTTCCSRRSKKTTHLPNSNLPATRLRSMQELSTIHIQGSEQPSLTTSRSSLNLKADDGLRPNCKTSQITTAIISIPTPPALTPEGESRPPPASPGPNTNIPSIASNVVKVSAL
Put plainly: Whole cell patch clamp, CHO-K1 cells stably expressing human Kv4.3/KChIP2.2. The conditions noted are these: CHO-K1; remaining current measured after application of the compound and relative to the blank; read-out: Kv4.3 charge in %. Format: cell-based. As for the experimental part: For this experiment, a recombinant CHO-K1 cell line stably expressing the human Kv4.3/KChIP2.2 potassium channel was used. The cells used for this experiment were kept in continuous culture under standard conditions (37° C., air supplemented with 7% CO2). The CHO-K1 Kv4.3/KChIP2.2 cells were kept in Iscove s modified DMEM (Dulbecco's Modified Eagle's Medium) medium (IMEM) supplemented with 100 U/ml Penicillin, 100 μg/ml Streptomycin, 7% fetal calf serum (FCS), 2.5 μg/ml amphotericin, 400 μg/ml G418, and 400 μg/ml Zeocin™. Cells were passed every 3-4 days after detachment using a Trypsin solution. The quality of the cultured cells was guaranteed by vitality and contamination tests. The culture of the cells was performed as described in protocol D hereunder.
10 mM stock solutions of the compounds were prepared in DMSO. Solutions of the compounds were prepared by dilution of stock solution in bath solution. If the required stock solution volume was theoretically below 1 μl, bath solutions with higher compound concentration were used for dilution. The maximal DMSO concentration during experiments was 0.1% (v/v).
Activity of the human Kv4.3/KChIP2.2 channel was investigated using the patch clamp technique in its whole cell mode. This means that the current needed for clamping the whole cell expressing the K^+-channel protein to a specific potential was measured. Experiments were performed using a patch clamp set-up. Technical equipment needed for manipulation of the cells was placed on a vibration-isolated table and shielded with a Faraday cage to minimize electrical noise. The amplifier and control system were placed in a rack outside the Faraday cage. The system consisted of an EPC9 or EPC10 patch clamp amplifier (HEKA, Lambrecht, Germany), and the perfusion system DADVC8 (ALA Scientific, New York, USA) controlled by the Pulse software package (HEKA, Lambrecht, Germany) installed on a personal computer. The pipettes used for patch clamping were made of borosilicate glass.
Measurements were performed at room temperature (20-25° C.). In each experiment (i.e. each cell) only one concentration of the compounds was investigated no cumulative dosages were performed. Each cell acted as its own control. […]
Between voltage pulses the cell was clamped to a holding potential of −80 mV (inside). The test protocols are illustrated in FIG. 1 and Table 4. The test protocol illustrated in FIG. 1a was used to characterize the properties of the Kv4.3/KChIP2.2 channel and to check the quality of the individual patch clamp experiment (voltage control). […] Each test protocol consisted of 4 segments.
After the whole cell configuration was established a current-voltage curve (IV activation 1; FIG. 1a and Table 4a) was recorded under constant superfusion with bath solution to check for Kv4.3/KChIP2.2 expression and the quality of the individual patch clamp experiment (voltage control). Subsequently, 14 test pulses (series 1; FIG. 1b and Table 4b) were applied at 0.1 Hz under constant superfusion with bath solution. The protocol was initiated by a voltage jump to 100 mV (400 ms) to achieve full inactivation. Then the Kv4.3/KChIP2.2 channels were transferred to the open state by depolarization to +40 mV for 300 milliseconds (activation). Only cells generating current amplitudes between 1 nA and 50 nA were used for the experimental procedure. No or negligible rundown was observed.
Then, 36 test pulses (series 2) were applied at 0.1 Hz under constant superfusion with the compound dissolved in bath solution. Finally, another current-voltage curve was recorded in the presence of the compounds (IV activation 2).
Three different types of analysis were used: Inhibition at the peak current, inhibition of translocated charge and inhibition 75 ms after activation at +40 mV (sustained current). The peak current/charge/current at 75 ms was determined using the online analysis tool of the HEKA pulse software package. […]
On the technique in general: The patch-clamp technique gives a direct electrical read-out from membranes.
Turning to `COc1ccccc1Nc1nc(C)c(C(=O)N[C@H]2CCC[C@@H]2OCc2ccccc2)o1` [Compound 210, 2-(2-methoxy-phenylamino)-4-methyl-oxazole-5-carboxylic acid ((1S,2S)-2-benzyloxycyclopent-1-yl) amide], the remaining activity at 1 µM is 86%.

Staying with this series, now noted: CHO-K1; remaining peak height measured after application of the compound and relative to the blank; read-out: Kv4.3 peak in %.
`COc1ccccc1Nc1nc(C)c(C(=O)N[C@H]2CCC[C@@H]2OCc2ccccc2)o1` [Compound 210, 2-(2-methoxy-phenylamino)-4-methyl-oxazole-5-carboxylic acid ((1S,2S)-2-benzyloxycyclopent-1-yl) amide]: the remaining activity at 1 µM was 99%.

The series is the same for the next values; noted with them: Kv4.3 mediated current, charge; patch clamp; read-out: Kv4.3 charge IC50.
Usually IC50 stands for the concentration that inhibits the measured activity by half. As for `COc1ccc(CNC(=O)c2sc(Nc3ccc(Br)cc3)nc2C)cc1OC` [Compound 61, 2-(4-bromo-phenylamino)-4-methyl-thiazole-5-carboxylic acid 3,4-dimethoxy-benzylamide], the half-maximal inhibitory concentration (IC50) is 1530 nM.
Turning to `Cc1nc(Nc2ccc(Br)cc2)sc1C(=O)NCc1cccnc1` [Compound 58, 2-(4-bromo-phenylamino)-4-methyl-thiazole-5-carboxylic acid (pyridin-3-ylmethyl)-amide], the IC50 turned out to be 4330 nM.
On the same count and under the same terms, with `Cc1nc(Nc2ccc(Br)cc2)sc1C(=O)N[C@H]1CCC[C@@H]1OCc1ccccc1` [Compound 26, 2-(4-bromo-phenylamino)-4-methyl-thiazole-5-carboxylic acid (1S,2S)-2-(benzyloxycyclopent-1-yl) amide] the figure was 2180 nM; with “2-(4-bromo-phenylamino)-4-methyl-thiazole-5-carboxylic acid naphth-1-yl methylamide [Compound 27]”, 2770 nM.
In the case of `Cc1nc(Nc2ccc(Br)cc2)sc1C(=O)NCc1ccncc1` [Compound 57, 2-(4-bromo-phenylamino)-4-methyl-thiazole-5-carboxylic acid (pyridin-4-ylmethyl)-amide], the half-inhibitory concentration (IC50) came to 11200 nM.
Still for that read-out and setting: with `CCCN(Cc1ccc([N+](=O)[O-])cc1)C(=O)c1sc(Nc2ccc(Br)cc2)nc1C` [Compound 28, 2-(4-bromo-phenylamino)-4-methyl-thiazole-5-carboxylic acid (4-nitro-benzyl)-propyl-amide] the figure was 1060 nM; with `Cc1ccccc1Nc1nc(C)c(C(=O)N[C@@H](C)c2ccc3ccccc3c2)s1` [Compound 32], 2550 nM.
Regarding `Cc1nc(Nc2ccc(Br)cc2)sc1C(=O)NCc1ccccn1` [Compound 59, 2-(4-bromo-phenylamino)-4-methyl-thiazole-5-carboxylic acid (pyridin-2-ylmethyl)-amide], the half-maximal inhibitory concentration (IC50) worked out at 3060 nM.
The same measure, in the same setting: with `COc1cccc([C@@H](C)NC(=O)c2sc(Nc3ccc(Br)cc3)nc2C)c1` [Compound 21, 2-(4-bromo-phenylamino)-4-methyl-thiazole-5-carboxylic acid (R)-1-(3-methoxyphenyl)ethyl amide] the figure was 1260 nM.
Still for that read-out and setting: to `COc1ccc(Cl)cc1Nc1nc(C)c(C(=O)N[C@@H]2CCC[C@H]2OCc2ccccc2)s1` [Compound 35, 2-(5-chloro-2-methoxy-phenylamino)-4-methyl-thiazole-5-carboxylic acid (1R,2R)-2-(benzyloxycyclopent-1-yl) amide] belongs 3060 nM.
Same read-out and setting: with `COc1ccccc1Nc1nc(C)c(C(=O)N[C@H](C)c2ccc3ccccc3c2)s1` [Compound 53, 2-(2-methoxy-phenylamino)-4-methyl-thiazole-5-carboxylic acid (R)-1-(2-naphtalen-2-yl-ethyl)-amide] the figure was 3950 nM; with `Cc1nc(Nc2ccc(F)cc2)sc1C(=O)N[C@H]1CCC[C@@H]1OCc1ccccc1` [Compound 67, 2-(4-fluoro-phenylamino)-4-methyl-thiazole-5-carboxylic acid (1S,2S)-2-(benzyloxycyclopent-1-yl) amide], 1970 nM.
Consider `C[C@@H](NC(=O)c1csc(Nc2ccccc2)n1)c1ccc([N+](=O)[O-])cc1` [Compound 47, 2-phenylamino-thiazole-4-carboxylic acid 1-((R)-4-nitrophenyl-ethyl)-amide], for which the half-maximal inhibitory concentration (IC50) came to 1800 nM.
Still for that read-out and setting: to `Cc1nc(N(C)c2ccc(Br)cc2)sc1C(=O)N[C@@H]1CCC[C@H]1OCc1ccccc1` [Compound 29, 2-(4-bromo-phenyl-methylamino)-4-methyl-thiazole-5-carboxylic acid (1R,2R)-2-(benzyloxycyclopent-1-yl) amide] belongs 2130 nM.
